In PubChem BioAssay (NCI):
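Assay format: 96-well plates, 48-hour exposure. GI50 is the concentration that inhibits growth by half. TGI is the concentration that stops growth completely.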

How the values were obtained:
Assay in all cases: growth of human tumour cells (NCI), 48 h
A549 NSCLC = tested on: A549 NSCLC
COLO 205 colon = tested on: COLO 205 colon
HL-60(TB) leukemia = tested on: HL-60(TB) leukemia
HOP-92 NSCLC = tested on: HOP-92 NSCLC
LOX IMVI melanoma = tested on: LOX IMVI melanoma
M14 melanoma = tested on: M14 melanoma
OVCAR-5 ovarian = tested on: OVCAR-5 ovarian
SK-OV-3 ovarian = tested on: SK-OV-3 ovarian
SW-620 colon = tested on: SW-620 colon
HS 578T breast = tested on: HS 578T breast

SMILES	TGI (A549 NSCLC)	TGI (COLO 205 colon)	TGI (HL-60(TB) leukemia)	TGI (HOP-92 NSCLC)	TGI (LOX IMVI melanoma)	TGI (M14 melanoma)	TGI (OVCAR-5 ovarian)	TGI (SK-OV-3 ovarian)	TGI (SW-620 colon)	GI50 (A549 NSCLC)	GI50 (COLO 205 colon)	GI50 (HL-60(TB) leukemia)	GI50 (HOP-92 NSCLC)	GI50 (LOX IMVI melanoma)	GI50 (M14 melanoma)	GI50 (OVCAR-5 ovarian)	GI50 (SK-OV-3 ovarian)	TGI (HS 578T breast)	GI50 (HS 578T breast)	GI50 (SW-620 colon)
C/C(CC(=O)NCCc1ccccc1)=N\NS(=O)(=O)c1ccc(C)cc1	> 100 µM	> 100 µM	> 100 µM	> 100 µM	> 100 µM	> 100 µM	> 100 µM	> 100 µM	> 100 µM	–	–	–	–	–	–	–	–	–	–	–
CC(C)/C=C1\CCC(CN2CCOCC2)C1=O (stereo not given)	72.6 µM	22.3 µM	5.58 µM	38.9 µM	53.6 µM	26.1 µM	39.4 µM	> 100 µM	8.08 µM	–	–	–	–	–	–	–	–	–	–	–
CCOC(=O)NC(=O)c1cn(CCN2CCN(C(=O)CNC(=O)CNC(=O)Cn3cc(C(=O)NC(=O)OCC)c(=O)[nH]c3=O)CC2)c(=O)[nH]c1=O	> 100 µM	> 100 µM	> 100 µM	> 100 µM	> 100 µM	> 100 µM	> 100 µM	> 100 µM	> 100 µM	–	–	–	–	–	–	–	–	–	–	–
COC1C(OC(=O)c2ccc(C)[nH]2)C(O)C(Oc2ccc3c(O)c(NC(=O)c4c[nH]c(C(=O)Nc5c(O)c6ccc(OC7OC(C)(C)C(OC)C(OC(=O)c8ccc(C)[nH]8)C7O)c(C)c6oc5=O)c4C)c(=O)oc3c2C)OC1(C)C (stereo not given)	61.3 µM	4.38 µM	–	–	9.4 µM	–	9.96 µM	4.58 µM	45.9 µM	–	–	–	–	–	–	–	–	–	–	–
N#C/C(=C1\SCC(=O)N1c1ccccc1)c1nc2ccccc2[nH]1	> 100 µM	> 100 µM	> 100 µM	> 100 µM	> 100 µM	> 100 µM	> 100 µM	> 100 µM	> 100 µM	–	–	–	–	–	–	–	–	–	–	–
O=C(/C=C(\O)C(=O)O)/C=C(\O)c1ccccc1	> 100 µM	> 25.9 µM	> 100 µM	> 1 µM	> 100 µM	> 100 µM	> 100 µM	> 100 µM	> 100 µM	> 1 µM	> 1 µM	> 1 µM	> 1 µM	> 1 µM	> 1 µM	> 100 µM	> 1 µM	–	–	–
Cc1ccc(S(=O)(=O)N/N=C(\c2nc3ccc(Cl)cc3[nH]c2=O)C(O)c2ccco2)cc1 (stereo not given)	> 100 µM	> 100 µM	> 100 µM	> 100 µM	> 100 µM	> 100 µM	> 100 µM	–	> 100 µM	–	–	–	–	–	–	–	–	–	–	–
COc1ccccc1N=Nc1c(-c2ccccc2)nn(C(=O)CC(=O)Nc2cccc(C)c2)c1-c1ccccc1	> 100 µM	> 100 µM	38 µM	–	> 100 µM	> 100 µM	> 100 µM	–	> 100 µM	–	–	–	–	–	–	–	–	–	–	–
C#CC1(O)CCC2C3CCc4cc(Oc5nc(F)nc(-c6c7ccccc7c7n6CCS7)n5)ccc4C3CC[C@@]21C (stereo not given in full)	> 100 µM	70 µM	54.5 µM	47 µM	–	40.5 µM	> 100 µM	–	> 100 µM	–	–	–	–	–	–	–	–	–	–	–
O=c1cccccc1[O-].O=c1cccccc1[O-].O=c1cccccc1[O-].[Eu+3]	> 100 µM	–	74.5 µM	> 100 µM	> 100 µM	> 100 µM	> 100 µM	> 100 µM	> 100 µM	–	–	–	–	–	–	–	–	–	–	–
O=S(=O)(NC1CCCCC1)c1ccc2c(c1)OCCOCCOCCOCCO2	> 100 µM	> 100 µM	> 100 µM	–	> 100 µM	> 100 µM	–	> 100 µM	> 100 µM	–	–	–	–	–	–	–	–	> 100 µM	–	–
[N-]=[N+]=NC(c1cn(C2CC(O)C(CO)O2)c(=O)[nH]c1=O)C(Cl)Br (stereo not given)	> 100 µM	> 100 µM	> 100 µM	> 100 µM	> 100 µM	–	–	–	> 100 µM	–	–	–	–	–	–	–	–	–	–	–
Cc1cc(N(CCC#N)S(=O)(=O)c2ccccc2)ccc1/C=C1\N=C(c2ccc(Cl)cc2)OC1=O	> 100 µM	> 100 µM	> 100 µM	> 100 µM	> 100 µM	> 100 µM	> 100 µM	–	> 100 µM	–	–	–	–	–	–	–	–	–	–	–
Cc1c(C(=O)C/C(=N/NC(=O)c2ccccc2)C(=O)Nc2ccc(Cl)cc2)[n+](=O)c2ccccc2n1[O-]	> 100 µM	> 100 µM	56.4 µM	–	> 100 µM	> 100 µM	> 100 µM	> 100 µM	> 100 µM	–	–	–	–	–	–	–	–	–	–	–
CC(C)C1CO[C@]2(C)CCC(=O)N12 (stereo not given in full)	> 100 µM	> 100 µM	> 100 µM	> 100 µM	–	> 100 µM	–	> 100 µM	> 100 µM	–	–	–	–	–	–	–	–	–	–	–
CCCn1c2c(c3c(O)cccc31)C(=O)c1ccccc1-2	> 100 µM	> 100 µM	–	–	> 100 µM	> 100 µM	> 100 µM	> 100 µM	> 100 µM	21.8 µM	> 100 µM	–	–	31.6 µM	60.6 µM	3.72 µM	23.7 µM	> 100 µM	33.1 µM	> 100 µM
CCO/C=C1\N=C(c2ccc(Cl)c(Cl)c2)OC1=O	> 100 µM	> 100 µM	> 100 µM	> 100 µM	> 100 µM	> 100 µM	> 100 µM	–	> 100 µM	–	–	–	–	–	–	–	–	–	–	–
